Measured values published in US20130029928A1 (priority 2010, published 2013).
Where two headings read alike, the source gives them in different places.

Test: Phase I study CXR1002-001: plasma pharmacokinetics (LC-MS/MS)
Format: in vivo, human
Conditions: human, plasma, oral, person, plasma, read-out: Concentration; for concentration at 168 h: 168 hr (Day 8); for concentration at 192 h: 192 hr (Day 9); for concentration at 336 h: 336 hr (Day 15); for concentration at 360 h: 360 hr (Day 16); for concentration at 504 h: 504 hr (Day 22); for concentration at 528 h: 528 hr (Day 23); for concentration at 672 h: 672 hr (Day 29); for concentration at 696 h: 696 hr (Day 30); for concentration at 840 h: 840 hr (Day 36); for concentration at 24 h: 24 hr (Day 2)
From the text: PK samples, PD (fasting) samples, blood glucose, and blood triglyceride samples, were taken over a 6-week period.
Dose limiting toxicity (DLT) will be based on the toxicity assessments over the first 3-week period of the repeat dosing schedule. PK samples (single blood sample) were taken on the following basis: • Every 6 weeks during the repeat dosing phase • If dosing is interrupted or stopped, samples will be taken at intervals according to patient convenience • PK sampling for safety evaluation may take place at any time, as clinically indicated
Plasma samples were collected after the single 50 mg dose at the following timepoints: Pre-dose, and then 0.25, 0.5, 0.75, 1, 1.5, 2, 3, 4, 6, 24, 48, and 72 hours after administration and then once weekly at weeks 2, 3, 4, 5, and 6 (days 8, 15, 22, 29, and 36). For patients treated with the weekly repeat dose, plasma samples were collected at the following timepoints: Pre-dose and then 2, 3, 4 and 24 hours after administration for a total of 6 weeks. Thereafter a single sample was collected every 6 weeks for monitoring of exposure during long term treatment. Plasma samples were processed at site and stored at −80° C. prior to batch shipment to the analytical laboratory.

In the case of `O=C(O)C(F)(F)C(F)(F)C(F)(F)C(F)(F)C(F)(F)C(F)(F)C(F)(F)F` [CXR1002], the concentration at 168 h (750 mg, Patient 027, 750 mg) is reported as 168 µM, the concentration at 170 h (750 mg, Patient 027, 750 mg) is reported as 235 µM and the concentration at 171 h (750 mg, Patient 027, 750 mg) is reported as 318 µM. The concentration at 172 h (750 mg, Patient 027, 750 mg) was 344 µM, the concentration at 192 h (750 mg, Patient 027, 750 mg) was 411 µM and the concentration at 336 h (750 mg, Patient 027, 750 mg) was 366 µM. The concentration at 338 h (750 mg, Patient 027, 750 mg) was 384 µM, the concentration at 339 h (750 mg, Patient 027, 750 mg) was 412 µM and the concentration at 340 h (750 mg, Patient 027, 750 mg) was 451 µM. The concentration at 360 h (750 mg, Patient 027, 750 mg) was 569 µM, the concentration at 504 h (750 mg, Patient 027, 750 mg) was 476 µM and the concentration at 506 h (750 mg, Patient 027, 750 mg) was 658 µM. It also gave a concentration at 507 h (750 mg, Patient 027, 750 mg) of 669 µM, a concentration at 508 h (750 mg, Patient 027, 750 mg) of 671 µM and a concentration at 528 h (750 mg, Patient 027, 750 mg) of 720 µM. It also gave a concentration at 672 h (750 mg, Patient 027, 750 mg) of 606 µM, a concentration at 674 h (750 mg, Patient 027, 750 mg) of 769 µM and a concentration at 675 h (750 mg, Patient 027, 750 mg) of 811 µM. The concentration at 676 h (750 mg, Patient 027, 750 mg) was 757 µM, the concentration at 696 h (750 mg, Patient 027, 750 mg) was 803 µM and the concentration at 840 h (750 mg, Patient 027, 750 mg) was 673 µM. For the same molecule, the concentration at 2 h (750 mg, Patient 028, 750 mg) was 207 µM, the concentration at 3 h (750 mg, Patient 028, 750 mg) was 174 µM and the concentration at 4 h (750 mg, Patient 028, 750 mg) was 160 µM. It also gave a concentration at 24 h (750 mg, Patient 028, 750 mg) of 160 µM, a concentration at 168 h (750 mg, Patient 028, 750 mg) of 161 µM and a concentration at 170 h (750 mg, Patient 028, 750 mg) of 321 µM. It also gave a concentration at 171 h (750 mg, Patient 028, 750 mg) of 301 µM, a concentration at 172 h (750 mg, Patient 028, 750 mg) of 273 µM and a concentration at 192 h (750 mg, Patient 028, 750 mg) of 295 µM. It also gave a concentration at 336 h (750 mg, Patient 028, 750 mg) of 288 µM, a concentration at 338 h (750 mg, Patient 028, 750 mg) of 473 µM and a concentration at 339 h (750 mg, Patient 028, 750 mg) of 396 µM. It also gave a concentration at 340 h (750 mg, Patient 028, 750 mg) of 406 µM, a concentration at 360 h (750 mg, Patient 028, 750 mg) of 450 µM and a concentration at 504 h (750 mg, Patient 028, 750 mg) of 467 µM. The concentration at 506 h (750 mg, Patient 028, 750 mg) was 582 µM, the concentration at 507 h (750 mg, Patient 028, 750 mg) was 490 µM and the concentration at 508 h (750 mg, Patient 028, 750 mg) was 581 µM. It also gave a concentration at 528 h (750 mg, Patient 028, 750 mg) of 655 µM, a concentration at 672 h (750 mg, Patient 028, 750 mg) of 522 µM and a concentration at 674 h (750 mg, Patient 028, 750 mg) of 710 µM. The concentration at 675 h (750 mg, Patient 028, 750 mg) was 713 µM, the concentration at 676 h (750 mg, Patient 028, 750 mg) was 700 µM and the concentration at 696 h (750 mg, Patient 028, 750 mg) was 758 µM. It also gave a concentration at 840 h (750 mg, Patient 028, 750 mg) of 682 µM, a concentration at 842 h (750 mg, Patient 028, 750 mg, 842 hr) of 824 µM and a concentration at 843 h (750 mg, Patient 028, 750 mg, 843 hr) of 792 µM. The concentration at 844 h (750 mg, Patient 028, 750 mg, 844 hr) was 853 µM, the concentration at 864 h (750 mg, Patient 028, 750 mg, 864 hr (Day 37)) was 775 µM and the concentration at 2 h (950 mg, Patient 029, 950 mg) was 219 µM. It also gave a concentration at 3 h (950 mg, Patient 029, 950 mg) of 251 µM, a concentration at 4 h (950 mg, Patient 029, 950 mg) of 307 µM and a concentration at 24 h (950 mg, Patient 029, 950 mg) of 353 µM. It also gave a concentration at 168 h (950 mg, Patient 029, 950 mg) of 289 µM, a concentration at 170 h (950 mg, Patient 029, 950 mg) of 604 µM and a concentration at 171 h (950 mg, Patient 029, 950 mg) of 602 µM.
